Test systems include HCT-116; OVCAR-5; CAKI-1; SK-MEL-28; SF-295; ACHN; LOX IMVI; EKVX; CCRF-CEM; NCI-H226; MDA-MB-231; SNB-19; NCI-H23; TK-10; IGROV-1; UACC-257; OVCAR-8; A549; HOP-92; HCC 2998.
What all share (assay): DTP human tumour cell line panel, 48 h

The structures appear in SMILES notation.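 Five concentrations, 48 hours, 96-well plates. At the GI50, growth is halved.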 Activity calls are given as the source filed them. Rule as the data show it: active = GI50 up to about 1.1 µM and inactive = higher. Where only a bound is given, the exact number is not on record here.

This is an account of results in ChEMBL document CHEMBL1201862, “PubChem BioAssay data set” (2004).

As usually defined, the GI50 is the concentration giving 50% growth inhibition. With `O=C(c1ccc(Cl)cc1)N(C(=O)N1CCC(c2ccccc2)CC1)c1ccccc1`, the GI50 with HCT-116 is 17.5 µM (inactive); with OVCAR-5 it was 0.558 µM (active); with CAKI-1, 54.1 µM (inactive); with SK-MEL-28, 45.2 µM (inactive); in the assay on SF-295 it was 31 µM (inactive); in the assay with ACHN it was 57.8 µM (inactive). Moreover, the GI50 was 28.1 µM (inactive) with LOX IMVI; 10.4 µM (inactive) in the assay with EKVX; 18.9 µM (inactive) in the assay with CCRF-CEM; 17.8 µM (inactive) in the assay on NCI-H226; 26.1 µM (inactive) with MDA-MB-231; 72.1 µM (inactive) in the assay with SNB-19. The GI50 is 23.9 µM (inactive) in the assay with NCI-H23; 30.7 µM (inactive) in the assay with TK-10; 17.9 µM (inactive) in the assay on IGROV-1; 25.4 µM (inactive) in the assay on UACC-257; 33.8 µM (inactive) in the assay on OVCAR-8.

With `Cc1c(N2C(=O)CS(=O)(=O)C2c2cccc(Oc3ccccc3)c2)c(=O)n(-c2ccccc2)n1C` (configuration not stated), the GI50 in the assay with A549 is 71.8 µM (inactive); in the assay with HCT-116, 26.7 µM (inactive); in the assay on OVCAR-5 it was > 100 µM (inactive); in the assay on CAKI-1, 42.3 µM (inactive); in the assay with SK-MEL-28, > 100 µM (inactive); with SF-295, 84.9 µM (inactive). The GI50 was > 100 µM (inactive) in the assay with ACHN; 47.6 µM (inactive) in the assay with LOX IMVI; 44.2 µM (inactive) in the assay on HOP-92; 46.7 µM (inactive) in the assay with EKVX; 45.9 µM (inactive) with CCRF-CEM; 42.6 µM (inactive) in the assay on NCI-H226. Further, the GI50 with MDA-MB-231 was > 100 µM (inactive); in the assay with SNB-19 it was > 100 µM (inactive); in the assay with NCI-H23, > 100 µM (inactive); with TK-10 it was 11.2 µM (inactive); in the assay with IGROV-1, 46.9 µM (inactive); in the assay on UACC-257, > 100 µM (inactive). Also, the GI50 in the assay on OVCAR-8 is 57.3 µM (inactive).

For the compound `C1#Cc2ccccc2OCCOc2ccccc2C#Cc2ccccc2OCCOc2ccccc21`, the GI50 was 25.2 µM (inactive) in the assay with A549; 32.7 µM (inactive) in the assay with HCT-116; 24 µM (inactive) in the assay on OVCAR-5; 17.7 µM (inactive) in the assay with CAKI-1; 70.8 µM (inactive) in the assay on SK-MEL-28; 21.6 µM (inactive) in the assay on SF-295. The GI50 with ACHN was 15 µM (inactive); with LOX IMVI, 16 µM (inactive); with EKVX, 26.5 µM (inactive); in the assay with CCRF-CEM, 18 µM (inactive); in the assay with NCI-H226, 19.1 µM (inactive); in the assay on MDA-MB-231, 17.7 µM (inactive). Moreover, the GI50 in the assay with SNB-19 is 25.9 µM (inactive); with NCI-H23, 16.9 µM (inactive); in the assay with TK-10 it was 28.8 µM (inactive); in the assay on IGROV-1 it was 15.6 µM (inactive); in the assay on UACC-257 it was > 100 µM (inactive); in the assay with OVCAR-8, 13.8 µM (inactive).

As for `Cc1cc(C)c2c(n1)S(=O)(=O)N(CCCN1CCN(c3cccc(C(F)(F)F)c3)CC1)C(C(=O)c1ccccc1)=C2O`, the GI50 with A549 was 4.55 µM (inactive); in the assay on HCT-116 it was 4.38 µM (inactive); in the assay on OVCAR-5, 7.36 µM (inactive); in the assay with CAKI-1 it was 2.79 µM (inactive); with SK-MEL-28, 9.64 µM (inactive); in the assay on SF-295 it was 4.11 µM (inactive). The GI50 is 9.04 µM (inactive) in the assay with ACHN; 3.03 µM (inactive) with LOX IMVI; 5.19 µM (inactive) with HOP-92; 4 µM (inactive) in the assay with EKVX; 5.19 µM (inactive) in the assay on CCRF-CEM; 1.03 µM (active) in the assay on NCI-H226. The GI50 is 20.3 µM (inactive) in the assay on MDA-MB-231; 5.53 µM (inactive) in the assay on SNB-19; 5.06 µM (inactive) in the assay on NCI-H23; 10.5 µM (inactive) in the assay on TK-10; 5.66 µM (inactive) in the assay on IGROV-1; 5.66 µM (inactive) in the assay on UACC-257. The GI50 in the assay on OVCAR-8 was 5.66 µM (inactive).

For `CC1=NN(C(=O)c2ccc(Cl)cc2)C(=O)C1/N=N/c1ccc(S(=O)(=O)Nc2ncccn2)cc1` (configuration not stated), the GI50 in the assay on A549, in the assay on HCT-116, in the assay on OVCAR-5, with CAKI-1, in the assay with SK-MEL-28 and with SF-295 was > 100 µM (inactive) throughout. In addition, the GI50 in the assay on ACHN is > 100 µM (inactive); with LOX IMVI, > 100 µM (inactive); in the assay with HOP-92 it was < 0.01 µM (active); in the assay with EKVX it was > 100 µM (inactive); with NCI-H226, > 100 µM (inactive); in the assay with MDA-MB-231 it was > 100 µM (inactive). Further, the GI50 in the assay on SNB-19, with NCI-H23, in the assay with TK-10, in the assay with IGROV-1, in the assay on UACC-257 and with OVCAR-8 was > 100 µM (inactive) throughout.

With `c1csc(-c2ccc(-c3cccs3)c3nsnc23)c1`, the GI50 in the assay on A549 was 33.9 µM (inactive); in the assay on HCT-116 it was 19.8 µM (inactive); in the assay with CAKI-1, > 59.8 µM (inactive); with SK-MEL-28, 20.2 µM (inactive); in the assay on SF-295, 42.3 µM (inactive); in the assay on ACHN, > 65.2 µM (inactive). For the same compound, the GI50 with LOX IMVI was 26.3 µM (inactive); with HOP-92 it was 35 µM (inactive); in the assay on EKVX it was 2.23 µM (inactive); with CCRF-CEM, 8.32 µM (inactive); in the assay with NCI-H226 it was > 33.5 µM (inactive); in the assay on MDA-MB-231, 22.4 µM (inactive). The GI50 in the assay on SNB-19 was > 90.8 µM (inactive); in the assay with NCI-H23, 22 µM (inactive); with TK-10 it was 7.64 µM (inactive); in the assay with IGROV-1, 0.875 µM (active); in the assay on UACC-257, > 65 µM (inactive); with OVCAR-8, 19.7 µM (inactive).

`CC(C)CCCC(C)[C@H]1CC[C@H]2[C@@H]3CC[C@H]4C[C@@H](CCC=C(c5cc(Cl)c(O)c(C(=O)OC(C)(C)C)c5)c5cc(Cl)c(O)c(C(=O)OC(C)(C)C)c5)CC[C@]4(C)[C@H]3CC[C@]12C` (some centres not stated): the GI50 in the assay with A549, in the assay on HCT-116, in the assay on OVCAR-5, in the assay with CAKI-1, in the assay on SK-MEL-28 and in the assay with SF-295 was > 50 µM (inactive) each time. The GI50 with LOX IMVI, in the assay on EKVX, with CCRF-CEM, in the assay on HCC 2998, with MDA-MB-231 and with SNB-19 was > 50 µM (inactive) throughout. Also, the GI50 in the assay with NCI-H23 and in the assay with IGROV-1 was > 50 µM (inactive) throughout.

As to `COc1c(Cl)ccc(Cl)c1C(=O)NNC(=O)c1c(Cl)c(Cl)c(Cl)c(Cl)c1-c1nc2cc(C(=O)c3ccccc3)ccc2[nH]1`, the GI50 in the assay with A549 was 56 µM (inactive); in the assay with HCT-116 it was 66.7 µM (inactive); with OVCAR-5 it was > 100 µM (inactive); in the assay on CAKI-1 it was 95.3 µM (inactive); in the assay with SK-MEL-28, 84.7 µM (inactive); with SF-295, 34.9 µM (inactive). The GI50 with ACHN was 37.5 µM (inactive); in the assay with LOX IMVI it was 55.1 µM (inactive); with HOP-92, 52.6 µM (inactive); in the assay on EKVX, 36.8 µM (inactive); with CCRF-CEM, 28.8 µM (inactive); in the assay with NCI-H226 it was 45.6 µM (inactive). Moreover, the GI50 in the assay with MDA-MB-231 was 37.6 µM (inactive); in the assay on SNB-19, > 100 µM (inactive); with NCI-H23, 64.1 µM (inactive); with TK-10, 72.3 µM (inactive); with IGROV-1 it was 31 µM (inactive); in the assay with UACC-257, 76.6 µM (inactive). Besides, the GI50 in the assay with OVCAR-8 was 72.9 µM (inactive).
